Test [1] relates to MCF-7 breast cancer cells. Kind of test: Culture of MCF-7 cells on peptide-modified array with or without paclitaxel (Taxol). The test is classed as cell-based. The settings on record: cells cultured on a peptide that induced morphological changes; Taxol for the last 4 days of seven; without drug: spread cells forming aggregate. From the text:
FIG. 19 illustrates changes such as drug-resistance and morphology observed when a peptide-modified array supported culture of MCF-7 breast cancer cells for seven days and was exposed to the anti-cancer drug paclitaxel (Taxol) for the last 4 days. FIG. 19a presents confocal images of calcein-stained cells after culture in media without taxol for four peptides (including two controls) and FIG. 19b correspond to cells cultured in media with Taxol.

Another test relates to MDA-MB-231-GFP cells. Kind of test: Short-term adhesion of MDA-MB-231-GFP cells to peptides synthesized on Teflon-patterned paper arrays. Type of test: cell-based. The note with it: for binding of cells to peptide-modified paper: confocal microscopy, FIG. 10b, 3 hours of incubation. How it is done: When immobilized on paper, 5 out of the 8 peptides synthesized supported adhesion of MDA-MB-231 breast carcinoma at levels similar to or higher than the positive control GRGDS. The other three peptides supported greater adhesion than the scrambled peptide, GGRDS.
The images represent short term adhesion of cells after 3 hours of incubation on the array.
In FIG. 14(a), a fluorescent gel scanner was used to validate adhesion of MDA-MB-231-GFP cells to phage-derived peptides on peptide-arrays. […] FIG. 14(c) illustrates digitization of the number of cells per zone from fluorescent gel scanner images of the 32 peptides. The (+) and (−) lines represent the intensity level of the positive and negative controls.
FIG. 18 illustrates a typical cell-binding experiment on a half array (40 peptides identified from two panning experiments, and 8 controls). […] FIG. 18c consists of the zones of interest for each peptide extracted from FIG. 18a, and organized by peptides. The average intensity of fluorescence for each peptide zone is then converted into a number of cells per zone through a calibration curve previously established for these cells (FIG. 18d). FIG. 18e is the resulting plot with standard deviation over the four replicates.

In the case of `CC(=O)O[C@H]1C(=O)[C@@]2(C)[C@H]([C@H](OC(=O)c3ccccc3)[C@]3(O)C[C@H](OC(=O)[C@H](O)[C@@H](NC(=O)c4ccccc4)c4ccccc4)C(C)=C1C3(C)C)[C@]1(OC(C)=O)CO[C@@H]1C[C@@H]2O` [Taxol, paclitaxel], the cell morphology entry in test [1] is recorded as “isolated, rounded cells”. On to “GGRDS (peptide identified by phage display panning on MDA-MB-231 cells) [scrambled peptide, negative control]”, for which, in the test with MDA-MB-231-GFP cells, the “binding of cells to peptide-modified paper” value is “no binding”. Also, the “adhesion of MDA-MB-231 breast carcinoma cells to peptide immobilized on paper” value with MDA-MB-231-GFP cells (fluorescent gel scanner (GFP fluorescence), 3 hours of incubation on the array, known bioactive peptides, FIG. 10a) was “minimal binding”. With “GRGDS (peptide identified by phage display panning on MDA-MB-231 cells)”, the “binding of cells to peptide-modified paper” value in the test with MDA-MB-231-GFP cells is given as “binding”.

For the origin of these results see patent US20210023523A1, “PARALLEL ORGANIC SYNTHESIS ON PATTERNED PAPER USING A SOLVENT-REPELLING MATERIAL” (The Governors of the University of Alberta, priority 2013, published 2021).
